The values that follow come from article PMC10615877 (Chemistry (Weinheim an der Bergstrasse, Germany), 2023).

Read-outs that look alike come from different tables or passages of the source. Bounds are passed on as bounds.

One experiment concerns A549. Put plainly: Presto Blue cell viability assay, A549. The experiment is classed as cell-based, human. The following applies: read-out: IC50 A549 (lung), 72 hours incubation.
A further experiment deals with Caki-1. Put plainly: Presto Blue cell viability assay, Caki-1. The experiment is classed as cell-based, human. Conditions: read-out: IC50 Caki-1 (renal), 72 hours incubation.
The next experiment relates to IMR90. Put plainly: Presto Blue cell viability assay, non-cancerous lung fibroblasts IMR90. The experiment is classed as cell-based, human. Conditions: read-out: IC50 IMR90 (lung fibroblasts), 72 hours incubation.
Another experiment has as its system SKOV-3. Put plainly: Presto Blue cell viability assay, SKOV-3. Conditions: read-out: IC50 SKOV-3 (ovarian), 72 hours incubation. The experiment is classed as cell-based, human.
The subject of a further experiment is plasmid pBR322 DNA. In words: Electrophoresis mobility shift assay with plasmid DNA. The following applies: no reducing agent, metal/DNAbp 0.2-1.0, 20 h, 37 °C.
Experiment [1] has as its system thioredoxin reductase (TrxR). The following applies: for inhibition: 100 µM.
The subject of another experiment is A2780. Put plainly: Presto Blue cell viability assay, A2780. Type of experiment: cell-based, human. Conditions: read-out: IC50 A2780 (ovarian), 72 hours incubation.
Another experiment concerns MDA-MB-231. Put plainly: Presto Blue cell viability assay, MDA-MB-231. The experiment is classed as cell-based, human. Conditions: read-out: IC50 MDA-MB-231 (breast), 72 hours incubation.
The subject of another experiment is T24. Put plainly: Presto Blue cell viability assay, T24. Type of experiment: cell-based, human. The following applies: read-out: IC50 T24 (bladder), 72 hours incubation.
Experiment [2] has as its system MDA-MB-157 cells. Conditions: read-out: IC50 2D MDA-MB-157; cited from earlier work.
In experiment [3] the test system is MDA-MB-231 cells. The following applies: MDA-MB-231 TNBC cell line, oxaliplatin treatment alone; cited from earlier work.
For experiment [4], the system named is MDA-MB-157 cells. Put plainly: PrestoBlue cell viability, MDA-MB-157 2D monolayer. Type of experiment: cell-based. The following applies: read-out: IC50 2D MDA-MB-157; 72 hours incubation, Presto Blue.
Experiment [5] relates to MDA-MB-231 cells. Put plainly: Annexin V / propidium iodide apoptosis assay by flow cytometry. Type of experiment: cell-based, human. Conditions: 72 h incubation with IC50, MDA-MB-231. Background: Flow cytometry measures light scatter and fluorescence of single cells or particles in a stream.
The next experiment deals with MDA-MB-231 cell line. Type of experiment: cell-based, human. Conditions: IC20 concentration, 24 h.
Experiment [6] relates to human umbilical vein endothelial cells (HUVEC). Put plainly: Endothelial tube formation assay. The experiment is classed as cell-based. The following applies: IC10 concentration, 16 h.
Another experiment deals with MDA-MB-468 cell line. The following applies: TNBC MDA-MB-468 cell line; cited from earlier work.

In general, IC50 refers to the point on the concentration scale where inhibition reaches its midpoint. Usually inhibition stands for the percentage by which the read-out fell short of the control. Lower therefore signals little suppression. For the molecule `N.N.[Cl-].[Cl-].[OH-].[OH-].[Pt+4]` [oxo-cisplatin, [Pt(NH3)2Cl2(OH)2]], the IC50 in the experiment with A549 stood at 67.8 µM; with Caki-1, 33.1 ± 2.9 µM; in the experiment with IMR90 it was 53.5 ± 4 µM; in the experiment with SKOV-3, 38.6 ± 4.4 µM; in the experiment on A2780, 2.7 ± 0.4 µM; with MDA-MB-231 it was 52.02 ± 0.08 µM. In the experiment on T24, the IC50 came to 69.9 ± 4.9 µM. Also, the “plasmid pBR322 band mobility (metal-DNA binding)” value (from here on “plasmid pBR322 band mobility”) in the experiment on plasmid pBR322 DNA is “did not change”. For the same molecule, the inhibition in experiment [1] amounted to 66%.

On to `N.N.[Cl][Pt][Cl]` [cisplatin], for which the IC50 with Caki-1 was 3.21 ± 0.88 µM; with IMR90, 6.21 ± 0.08 µM; with SKOV-3, 3.84 ± 0.39 µM; in the experiment with MDA-MB-157 cells [2], 21.6 µM; in the experiment on A2780, 1.4 ± 0.31 µM; with MDA-MB-231, 7.46 ± 0.62 µM. In the experiment on T24, the IC50 stood at 2.86 ± 0.36 µM. Further, the “plasmid pBR322 band mobility” value with plasmid pBR322 DNA is given as “displayed bands for expected DNA-drug interactions”. Moreover, the inhibition in experiment [1] is 26.4%.

Take `O=C1[O][Pt]2([NH][C@@H]3CCCC[C@H]3[NH]2)[O]C1=O` [oxaliplatin]: in the experiment on MDA-MB-231 cells [3], the increase in apoptosis was 30%. Further, the IC50 in the experiment on A549 was determined as 15.8 µM; in the experiment on MDA-MB-157 cells [4] it was 26.6 ± 1.7 µM; in the experiment with Caki-1, 8.21 ± 0.07 µM; in the experiment on IMR90, 29.8 ± 1.3 µM; in the experiment on SKOV-3 it was 42.6 ± 3.6 µM; with A2780, 1.82 ± 0.02 µM. For the same molecule, the IC50 in the experiment with MDA-MB-231 is 10.1 ± 0.89 µM; in the experiment on T24 it was over 100 µM. Further, in the experiment on MDA-MB-231 cells [5], the “increase of early apoptosis” value was found to be 30%. Besides, the “inhibition of migration (wound-healing)” value in the experiment with MDA-MB-231 cell line was found to be 20%. For the same molecule, the “disruption of tube length (TL)” value in [6] is 8%. Besides, the “disruption of tube nodes (TN)” value in experiment [6] is 14%. Further, in the experiment on plasmid pBR322 DNA, the “plasmid pBR322 band mobility” value is “displayed bands for expected DNA-drug interactions”. In addition, the inhibition in experiment [1] stood at 29.7%.

On to `N.N.O=C([O-])C1(C(=O)[O-])CCC1.[Pt+2]` [Carboplatin], for which, in the experiment on MDA-MB-468 cell line, the apoptosis result was “ca. 60%”.

For `CC(=O)OC[C@H]1O[C@@H]([S-])[C@H](OC(C)=O)[C@@H](OC(C)=O)[C@@H]1OC(C)=O.CCP(CC)CC.[Au+]` [Auranofin], in [1] (1 μM of metal compound, 72 h, MDA-MB-231 cells), the “inhibition of TrxR activity” value is reported as 100%. The inhibition in [1] came to 100%.
